Drawing on patent US20100168031A1, “Lat peptides and their use in assays for identifying immunosuppressants” (priority 2000, published 2010), this text covers IC50 for 7 compounds.

Numbered stars: 1 amine (or outer) side, 2 acyl side, 3 side chain; on linkers, the order of the positions; unused ones are H or OH. Peptide text beside a SMILES is read from it. Suc = O=C(CCC(=O)[*:2])[*:1]

This assay has as its target T1, ZAP-70 (Homo sapiens, UniProt P43403).
T1 construct: A nucleic acid encoding full-length human ZAP-70 (GenBank #L05148); hexa-histidine (N); made in house; host or cells: Sf9 insect cells (baculovirus)
T1 sequence (P43403 1-619): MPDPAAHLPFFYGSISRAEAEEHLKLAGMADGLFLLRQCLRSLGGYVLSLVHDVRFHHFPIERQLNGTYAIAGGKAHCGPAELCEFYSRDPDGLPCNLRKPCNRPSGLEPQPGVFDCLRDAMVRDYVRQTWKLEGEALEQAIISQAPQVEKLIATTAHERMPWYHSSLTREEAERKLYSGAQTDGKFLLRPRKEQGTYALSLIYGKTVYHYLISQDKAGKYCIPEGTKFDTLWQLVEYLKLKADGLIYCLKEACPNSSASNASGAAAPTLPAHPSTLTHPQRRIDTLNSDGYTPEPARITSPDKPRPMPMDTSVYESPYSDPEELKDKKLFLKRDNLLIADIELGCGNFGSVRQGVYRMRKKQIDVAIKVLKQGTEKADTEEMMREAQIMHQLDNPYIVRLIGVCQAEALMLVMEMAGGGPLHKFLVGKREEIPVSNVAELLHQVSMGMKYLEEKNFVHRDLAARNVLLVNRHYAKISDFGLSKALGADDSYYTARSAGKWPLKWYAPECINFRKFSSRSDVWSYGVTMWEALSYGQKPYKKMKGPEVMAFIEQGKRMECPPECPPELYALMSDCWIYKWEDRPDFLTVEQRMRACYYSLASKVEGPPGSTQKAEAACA
The experiment in a line: Phosphorylation of compounds of formula I by ZAP-70 measured in a competitive assay (Example C5). The following applies: non-biotinylated peptide competing with biotinylated SEQ ID NO:12; Lck-activated ZAP-70, PP2 added, 4 hours at RT; read-out: IC50, inhibition of the phosphorylation of SEQ ID NO:12 by ZAP-70. The assay is classed as biochemical. The method, then:
80 nM ZAP-70 are incubated with 80 nM Lck and 4 μM ATP in ZAP-70 kinase buffer for 1 hour at RT in a siliconized polypropylene tube. Then, the selective Lck inhibitor PP2 (see Example C2) is added (final concentration 1.2 μM) and incubated for further 10 min.
Ten μl of this solution is mixed with 10 μl biotinylated compound of e.g. SEQ ID NO:12 (1 μM) and 20 μl of the non-biotinylated peptides of compounds of formula I, e.g. by SEQ ID NO:21, SEQ ID NO:15, SEQ ID NO:16 or SEQ ID NO:17 (serial dilution 0.28 to 200 μM) and incubated for 4 hours at RT. Termination of the kinase reaction, detection phase and determination of fluorescence is performed as described in Example C1.

The IC50 is the point on the concentration scale where inhibition reaches its midpoint. Consider `CC(C)C[C@H](NC(=O)[C@H](CC(N)=O)NC(=O)[C@H](CCC(=O)O)NC(=O)[C@H](Cc1ccc(O)cc1)NC(=O)[C@H](CC(=O)O)NC(=O)CCC(=O)O)C(N)=O` [SEQ ID NO:22, HOOC-CH2-CH2-CO-Asp-Tyr-Glu-Asn-Leu-NH2] (Suc-DYENL-NH2), for which the IC50 was 0.6 to 21 µM. As for `CC(C)C[C@H](NC(=O)[C@H](CC(N)=O)NC(=O)[C@H](CCC(=O)O)NC(=O)[C@H](Cc1ccc(O)cc1)NC(=O)[C@H](CC(=O)O)NCC(=O)O)C(N)=O` [SEQ ID NO:23, HOOC-CH2-Asp-Tyr-Glu-Asn-Leu-NH2], the IC50 fell in the range of 0.6 to 21 µM.

In the case of `CC(C)C[C@H](NC(=O)[C@H](Cc1ccccc1)NC(=O)[C@H](CCC(=O)O)NC(=O)[C@H](Cc1ccc(O)cc1)NC(=O)[C@H](CC(=O)O)NC(=O)CCC(=O)O)C(N)=O` [SEQ ID NO:24, HOOC-CH2-CH2-CO-Asp-Tyr-Glu-Phe-Leu-NH2] (Suc-DYEFL-NH2), the IC50 was 0.6 to 21 µM.

For the compound “Ac-DYENL-NH2 [SEQ ID NO:17, acetyl-Asp-Tyr-Glu-Asn-Leu-NH2]”, the IC50 fell in the range of 0.6 to 21 µM. To “Ac-DYENLQELN-OH [SEQ ID NO:15, acetyl-Asp-Tyr-Glu-Asn-Leu-Gln-Glu-Leu-Asn-OH]” belongs 0.6 to 21 µM; to “Ac-EEGAPDYENL-NH2 [SEQ ID NO:16, acetyl-Glu-Glu-Gly-Ala-Pro-Asp-Tyr-Glu-Asn-Leu-NH2]”, 0.6 to 21 µM. The same measure for “Ac-EEGAPDYENLQELN-OH [SEQ ID NO:21, acetyl-Glu-Glu-Gly-Ala-Pro-Asp-Tyr-Glu-Asn-Leu-Gln-Glu-Leu-Asn-OH]”: 0.6 to 21 µM.
